Data on 79 molecules can be found in the METLIN SMRT retention time set (Domingo-Almenara et al. 2019).

Molecules are shown by their SMILES.

The nature of this series: gradient 5% acetonitrile 3 min, to 50% in 2 min, to 85% in 15 min, held 3 min, 100 µL/min. The note with it: column: Zorbax Extend-C18 2.1 x 50 mm; eluents: water / acetonitrile, 0.1% formic acid. The essentials:
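Pure standards were run in mixtures of ~100 molecules by HPLC coupled to a quadrupole time-of-flight mass spectrometer. The column was a Zorbax Extend-C18 (2.1 × 50 mm, 1.8 μm) at 100 μL/min, with water and acetonitrile each containing 0.1% formic acid, in positive and negative ionization mode. Dead and dwell volumes were 40 μL and 900 μL. Retention time was taken from computationally picked adduct peaks, each manually inspected, with data collected over 3 months.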
With `Cc1ccc(NC(=O)N2CCN(c3cnn4c(C)nnc4c3)CC2)cc1`, the RP-LC retention time stood at 563 s.

The molecule `COc1ccc(NC(=O)Cn2ccnc2-c2ccnc(N3CCOCC3)c2)cc1OC` had an RP-LC retention time of 578 s.

Molecule `Cc1cc(C)c2c(N3CCSCC3)nc(C(=O)NCC3CC3)nc2n1` displayed an RP-LC retention time of 653 s.

`O=C(NCc1ccccc1)C1=C2CCCN2c2ccc(F)cc2S1(=O)=O` registered an RP-LC retention time of 836 s.

For `COc1ccc(Cl)cc1NC(=O)NCCC1CCN(S(=O)(=O)c2ccccc2)CC1`, the RP-LC retention time was determined as 1010 s.

For `O=C(Nc1cccc(-c2ccc(N3CCOCC3)nn2)c1)Nc1ccccc1Cl`, the RP-LC retention time stood at 730 s.

For the molecule `Cc1ccccc1-c1noc(-c2cccn(CC(=O)NC3CCCC3)c2=O)n1`, the RP-LC retention time amounted to 832 s.

The molecule `CCN(CC)C(=O)c1ccc2c(c1)N(CC(=O)NC1CCCCC1)C(=O)CO2` returned an RP-LC retention time of 724 s.

In the case of `COc1cccc(CNC(=O)CN2C(=O)NC(c3ccccc3Cl)C3=C2COC3=O)c1` (centres undefined), the RP-LC retention time was determined as 780 s.

Molecule `CCc1cc(=O)n(CC(=O)Nc2ccc3c(c2)OCCO3)c(N2CCOCC2)n1` displayed an RP-LC retention time of 681 s.

`CC(=O)N1CCc2sc(C(=O)N3CCN(c4ccccn4)CC3)cc2C1` showed an RP-LC retention time of 575 s.

`Cc1nn(C)c(C)c1S(=O)(=O)N1CCN(C(=O)CCc2c[nH]c3ccccc23)CC1` came in with an RP-LC retention time of 708 s.

In turn, `Cc1ccc(CN2CCN(C3CCN(S(=O)(=O)c4cc(F)ccc4F)CC3)C(=O)C2=O)cc1` returned an RP-LC retention time of 910 s.

`CC1CCN(C(=O)CSCC(=O)Nc2nc(-c3ccc4c(c3)OCO4)cs2)CC1`: the RP-LC retention time was determined as 890 s.

Molecule `Cc1ccc(-c2nc3cnccn3c2Nc2ccc(C)c(Cl)c2)cc1` had an RP-LC retention time of 1080 s.

`O=C1CC2(CCCC2)CC(=O)N1CCCCNCC1COc2ccccc2O1` (centres undefined) had an RP-LC retention time of 758 s.

Molecule `Cc1cc(F)ccc1NC(=O)CN1C(=O)CCCc2cc(S(=O)(=O)N3CCCC3)ccc21` registered an RP-LC retention time of 817 s.

The molecule `CCC(=O)N1CCc2cc(-c3ccc(C(=O)N4CCC(C(N)=O)CC4)cc3)ccc21` had an RP-LC retention time of 667 s.

Regarding `Cc1cccc(CNC(=O)Cc2csc3nc(-c4ccccc4)cn23)c1`, the RP-LC retention time turned out to be 880 s.

The molecule `CCN1c2ccccc2C(=O)NC12CCN(C(=O)Nc1ccc3c(c1)OCO3)CC2` registered an RP-LC retention time of 737 s.

Take `COc1ccc(NC(=O)CN2C(=O)NC3(CCCCC3)C2=O)cc1`: the RP-LC retention time is 723 s.

`CCC(C)NC(=O)c1nnn(Cc2cccc(Cl)c2)c1-n1cccc1` (centres undefined) showed an RP-LC retention time of 1040 s.

The molecule `CCc1cccc(NC(=O)c2sc(-c3cn(C)c4ncccc34)nc2C)c1` came in with an RP-LC retention time of 1040 s.

Turning to `Cc1cccc(NC(=O)C2CCN(C(=O)c3ncn4c3COC(c3ccccc3)C4)CC2)c1` (centres undefined), the RP-LC retention time stood at 798 s.

`CC(C)(C)c1ccc(S(=O)(=O)N2CCCC(CNC(=O)c3ccccc3)C2)cc1` (centres undefined) gave an RP-LC retention time of 1080 s.

As for `O=C(c1ccc2c(c1)CCCN2S(=O)(=O)c1ccccc1)N1CCCCC1`, the RP-LC retention time is 939 s.

The molecule `CC(C)Oc1ccc(CNC(=O)C2=Cc3ccccc3OC2)cc1` showed an RP-LC retention time of 1040 s.

Take `COc1ccc(-c2noc(C3CCCN3C(=O)c3ccsc3)n2)cc1OC` (centres undefined): the RP-LC retention time worked out at 834 s.

Molecule `CCOC(=O)c1ccccc1NC(=O)CSc1ccc(-c2ccc3c(c2)OCO3)nn1` registered an RP-LC retention time of 974 s.

For `O=C(Cn1cnc2nc(N3CCOCC3)ncc2c1=O)Nc1ccc2c(c1)OCCO2`, the RP-LC retention time came to 658 s.

In turn, `CC1=NS(=O)(=O)c2cccnc2N1c1ccc(Br)cc1` yielded an RP-LC retention time of 836 s.

Molecule `CCN1C(=O)c2cccnc2Sc2cc(NC(=O)c3ccc(Cl)s3)ccc21` yielded an RP-LC retention time of 932 s.

In the case of `COc1cccc(CN2CC[C@@](C)(O)[C@H](N3CCCC3)C2)c1`, the RP-LC retention time worked out at 519 s.

Molecule `Cn1nc(C(=O)N2CCCC(C(=O)Nc3ccccc3)C2)c2c1CCN(C(=O)CC1CCCC1)C2` (centres undefined) came in with an RP-LC retention time of 800 s.

As to `COc1ccccc1-c1noc(C2CCCN2C(=O)Nc2ccccc2Br)n1` (centres undefined), the RP-LC retention time stood at 972 s.

In turn, `CC(C)(C)CCN1CCCC(COc2ccccc2C(=O)N2CCCC2)C1` (centres undefined) displayed an RP-LC retention time of 668 s.

Molecule `O=C1c2cccc3c2[C@H](CCC3)CN1[C@@H]1CN2CCC1CC2` registered an RP-LC retention time of 678 s.

As to `Cc1ccc(C(=O)N2CCCC(c3nnc(-c4ccccc4)o3)C2)s1` (centres undefined), the RP-LC retention time stood at 861 s.

Consider `Cc1ccc(-c2csc(Nc3ccc(F)cn3)n2)cc1C`, for which the RP-LC retention time came out at 1180 s.

The molecule `Cc1ccc(NC(=O)Cc2cccc3ccccc23)cc1N1CCCC1=O` gave an RP-LC retention time of 753 s.

`CCNc1cc(N2CCCC(CCC(=O)N(C)Cc3cn(C)nc3C)C2)ncn1` (centres undefined) returned an RP-LC retention time of 598 s.

As to `O=C1C(=C2C=C(c3ccccc3)OC3=C2CCCC3)C(=O)c2ccccc21`, the RP-LC retention time stood at 1150 s.

In turn, `O=C(c1cn2cc(Cl)ccc2n1)N1CCCCCC1` registered an RP-LC retention time of 718 s.

As to `CCCn1c(CCNC(=O)c2ccc(F)cc2)nc2cccnc21`, the RP-LC retention time stood at 651 s.

Regarding `Cc1ccc(-c2nnc(-c3nn(C)c4c3CN(S(=O)(=O)c3ccc(CC(C)C)cc3)CC4)o2)cc1`, the RP-LC retention time was found to be 1230 s.

For `CCc1ccc(-c2cc(C(F)(F)F)on2)cc1S(=O)(=O)N1CCN(c2ccccn2)CC1`, the RP-LC retention time was found to be 933 s.

Take `O=C(Cn1nc2nc(N3CCCCCC3)ccn2c1=O)Nc1cc(F)cc(F)c1`: the RP-LC retention time was found to be 798 s.

In turn, `CSc1cccc(NC(=O)C(=O)NCc2cccs2)c1` yielded an RP-LC retention time of 846 s.

Take `CC(C)CC(C(=O)Nc1cccc(O)c1)N1C(=O)c2ccccc2C1=O` (centres undefined): the RP-LC retention time amounted to 823 s.

Consider `O=C1[C@H]2CN(Cc3cccc(Cl)c3F)C[C@H]2C(=O)N1CCc1ccccc1`, for which the RP-LC retention time was 992 s.

Regarding `c1ccc2c(OCc3nc4c5ccccc5ncn4n3)cccc2c1`, the RP-LC retention time is 1040 s.

Take `O=C(CCC1CCCC1)NCCC1CCN(C(=O)Nc2ccc(F)cc2)CC1`: the RP-LC retention time was found to be 887 s.

Regarding `CN(C)c1ccc(-c2nc(-c3cn(-c4ccc(F)cc4)nn3)no2)cc1`, the RP-LC retention time worked out at 1060 s.

`O=C(NC1CC1)c1ccc(N2CCC(NCc3ccc(F)c(F)c3)C2)nc1` (centres undefined) gave an RP-LC retention time of 567 s.

`Cn1nc(C(=O)N2CCCC2)c2c1CCN(C(=O)Nc1ccc(F)cc1F)C2`: the RP-LC retention time worked out at 718 s.

Turning to `Cc1nc(Nc2ccc(NC(=O)c3ccc(Br)o3)cc2)cc(-n2ccnc2)n1`, the RP-LC retention time turned out to be 587 s.

Consider `Cc1ccc(C(C)C)c(OCC(=O)Nc2ccc(S(=O)(=O)Nc3cc(C)on3)cc2)c1`, for which the RP-LC retention time was determined as 1000 s.

As for `O=C(CSC1=N/C(=C/c2ccc3c(c2)OCO3)C(=O)N1c1ccccc1)c1ccccc1`, the RP-LC retention time came to 1100 s.

Consider `Cc1cc2c(cc1CNC(=O)Cn1c(C)c(C#N)c3ccccc31)OCCCO2`, for which the RP-LC retention time stood at 894 s.

Take `Cc1nnc(-c2ccc3ccn(CC(=O)N4CCN(c5cc(Cl)ccc5C)CC4)c3c2)o1`: the RP-LC retention time worked out at 1020 s.

Turning to `CC[C@@H](CO)Nc1nc(NCc2ccc(-c3ccccn3)cc2)c2ncn(C(C)C)c2n1`, the RP-LC retention time is 632 s.

Molecule `CC(C)Oc1ccc(-c2noc(CN3C(=O)COc4cc(Cl)ccc43)n2)cc1` yielded an RP-LC retention time of 1190 s.

On to `COc1ccc(-c2cc(C(=O)N3CCCC3c3cc(C)on3)no2)cc1` (centres undefined), for which the RP-LC retention time was found to be 964 s.

`CCOC(=O)c1[nH]c(C)c(CN(Cc2ccc3c(c2)OCO3)C(=O)C2CC2)c1C` showed an RP-LC retention time of 929 s.

Molecule `Fc1ccc(CSc2ncnc3nc[nH]c23)cc1` came in with an RP-LC retention time of 719 s.

As for `O=S1(=O)C[C@H](N2CCN(Cc3ccccc3)CC2)[C@@H](S(=O)(=O)c2ccc(F)cc2)C1`, the RP-LC retention time was found to be 647 s.

On to `Cc1sc2ccn(CC(C)C)c(=O)c2c1C(=O)NC1CCN(Cc2ccccc2)CC1`, for which the RP-LC retention time was 658 s.

Consider `CCOc1ccc(CN2C[C@@H]3C(=O)N(CCN4CCc5ccccc5C4)C(=O)[C@@H]3C2)cc1`, for which the RP-LC retention time was 598 s.

`O=C(Nc1cccc(-c2nnc3n2CCCC3)c1)C1CCCC1` gave an RP-LC retention time of 673 s.

With `COc1ccc(NC(=O)C2CCc3sc(C(=O)N(C)C)cc3C2)cc1` (centres undefined), the RP-LC retention time stood at 663 s.

Molecule `Cc1ccc(-c2noc(C3CCCN3S(=O)(=O)c3c(C)c(C)cc(C)c3C)n2)cc1` (centres undefined) returned an RP-LC retention time of 788 s.

With `O=C1NCCCCCCN(C(=O)Nc2ccccc2F)[C@H]2CCCC[C@@H]12`, the RP-LC retention time came to 846 s.

Molecule `Cc1noc([C@@H]2CC(F)(F)CN2C(=O)c2cnc[nH]2)n1` showed an RP-LC retention time of 582 s.

With `Cc1nn(C)c2nc(OCC(=O)N3CCCCCC3)cc(C(F)(F)F)c12`, the RP-LC retention time was 958 s.

`O=C(NCCCN1CCCC1=O)c1csc(N2CCN(c3ccccc3)CC2)n1` gave an RP-LC retention time of 781 s.

`Cn1c(=O)n(C)c2cc(CNCCc3ccc(Cl)cc3Cl)ccc21`: the RP-LC retention time turned out to be 653 s.

For the molecule `Cc1ncc2c(n1)C[C@@H]1CC[C@H]2N1C(=O)COc1ccc(F)cc1`, the RP-LC retention time was determined as 675 s.

For `Cc1cc(CN2CC(F)(F)C[C@H]2c2nnc(-c3ccccc3)o2)n(C)n1`, the RP-LC retention time worked out at 806 s.

Take `O=C(NCc1ccco1)C1CCN(c2nc3cccnc3s2)CC1`: the RP-LC retention time turned out to be 683 s.
